In ChEMBL document CHEMBL1201862, “PubChem BioAssay data set” (2004):
Activity calls are given as the source filed them.

Key:
[1] = target: SUMO-activating enzyme (Homo sapiens, UniProt Q9UBT2); experiment: blockers of UBC9-mediated SUMO conjugation – biochemical, AlphaScreen, SUMOylation inhibitor project, confirmation (AID 2018); assay type: functional
[2] = decrease of insulin promoter-GFP reporter – imaging, high-content screening, mouse beta cells (AID 1628); assay type: functional; settings: MIN6
[3] = NIH-3T3 fibroblast cytotoxicity, dose response, cytotoxicity control, cell-based, fluorescence, Alamar Blue, secondary assay (AID 2327); assay type: functional;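 also: NIH-3T3 mouse fibroblasts cultured with fluconazole at 8 µg/mL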
[4] = cells; assay type: functional, cell-based
[5] = target: Intestinal-type alkaline phosphatase (Mus musculus, UniProt P24822); experiment: PubChem AID 488874; assay type: functional
Chain of Intestinal-type alkaline phosphatase (Mus musculus, UniProt P24822) (P24822 whole entry): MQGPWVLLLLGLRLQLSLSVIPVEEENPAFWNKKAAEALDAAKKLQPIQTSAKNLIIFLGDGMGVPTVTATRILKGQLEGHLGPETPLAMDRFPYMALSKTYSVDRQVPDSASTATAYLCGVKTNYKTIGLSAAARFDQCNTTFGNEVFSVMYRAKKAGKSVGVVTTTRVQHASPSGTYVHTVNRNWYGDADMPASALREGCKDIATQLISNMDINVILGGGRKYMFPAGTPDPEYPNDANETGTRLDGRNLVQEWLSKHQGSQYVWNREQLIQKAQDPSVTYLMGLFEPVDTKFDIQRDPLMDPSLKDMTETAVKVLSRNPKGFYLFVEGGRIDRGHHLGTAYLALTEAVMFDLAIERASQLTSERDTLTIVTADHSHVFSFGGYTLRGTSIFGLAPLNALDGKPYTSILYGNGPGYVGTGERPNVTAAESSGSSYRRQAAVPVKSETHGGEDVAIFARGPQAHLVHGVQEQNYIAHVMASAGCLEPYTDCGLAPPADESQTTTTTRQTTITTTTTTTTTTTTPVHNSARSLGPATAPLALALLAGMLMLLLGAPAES

[6] = target: T1, Alkaline phosphatase, tissue-nonspecific isozyme (Homo sapiens, UniProt P05186); experiment: activation of tissue-nonspecific alkaline phosphatase – biochemical, TNAP isozyme, human IAP uHTS hits, selectivity assay for human IAP activator project, dose response (AID 488886); assay type: functional;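 also: potency of compounds raising TNAP activity as a selectivity check on IAP activators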
T1 sequence (P05186 whole entry): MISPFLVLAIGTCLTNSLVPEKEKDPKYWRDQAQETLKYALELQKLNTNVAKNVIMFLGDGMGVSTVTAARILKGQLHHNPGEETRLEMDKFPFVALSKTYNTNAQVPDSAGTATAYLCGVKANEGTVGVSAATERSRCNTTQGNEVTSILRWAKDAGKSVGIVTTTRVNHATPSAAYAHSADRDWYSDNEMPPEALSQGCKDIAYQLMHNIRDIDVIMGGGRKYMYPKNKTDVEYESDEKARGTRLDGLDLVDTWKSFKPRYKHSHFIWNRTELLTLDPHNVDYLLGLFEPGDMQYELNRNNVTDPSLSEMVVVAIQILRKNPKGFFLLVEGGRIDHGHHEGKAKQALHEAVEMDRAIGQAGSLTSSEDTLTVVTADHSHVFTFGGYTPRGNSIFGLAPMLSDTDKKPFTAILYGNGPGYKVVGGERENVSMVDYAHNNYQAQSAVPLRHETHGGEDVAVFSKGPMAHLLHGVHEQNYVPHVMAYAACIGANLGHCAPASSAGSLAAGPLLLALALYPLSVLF

[7] = NIH3T3 cell viability loss – ATP luminescence, mouse fibroblasts, counter-screen, dose response (AID 2010); assay type: functional, cell-based;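 also: cells exposed to compound for about 90 hours before reading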
[8] = fluconazole-exposed Candida albicans growth modulators – fluorescence, retest, confirmation (AID 2467); assay type: functional, cell-based
[9] = MIN6 cell viability loss – mouse insulinoma, cytotoxicity control, dose response (AID 2122); assay type: functional;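 also: confirmatory high-throughput counterscreen run to flag cytotoxic compounds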
[10] = target: T2, Intestinal-type alkaline phosphatase (Homo sapiens, UniProt P09923); experiment: human intestinal alkaline phosphatase activators, dose response, biochemical, luminescence, uHTS hits (AID 463120); assay type: functional
T2 sequence (P09923 whole entry): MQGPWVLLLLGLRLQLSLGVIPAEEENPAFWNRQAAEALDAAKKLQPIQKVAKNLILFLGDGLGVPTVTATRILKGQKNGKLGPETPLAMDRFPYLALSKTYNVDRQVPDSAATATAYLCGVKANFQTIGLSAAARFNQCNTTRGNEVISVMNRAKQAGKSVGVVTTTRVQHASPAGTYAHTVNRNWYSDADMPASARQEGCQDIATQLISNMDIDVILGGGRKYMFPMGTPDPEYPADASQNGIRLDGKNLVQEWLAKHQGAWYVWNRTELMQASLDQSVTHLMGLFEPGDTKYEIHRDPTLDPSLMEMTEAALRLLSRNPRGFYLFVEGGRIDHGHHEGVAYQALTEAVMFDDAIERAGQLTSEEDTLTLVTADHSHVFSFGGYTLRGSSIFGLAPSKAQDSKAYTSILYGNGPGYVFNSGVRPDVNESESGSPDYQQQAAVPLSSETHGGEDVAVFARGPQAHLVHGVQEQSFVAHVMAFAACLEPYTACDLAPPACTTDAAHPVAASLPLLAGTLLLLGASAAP

[11] = cells; assay type: functional, cell-based; remark: listed apart in the source
[12] = target: T2, Intestinal-type alkaline phosphatase; experiment: activation of human intestinal alkaline phosphatase – biochemical, luminescent, uHTS hits, set 2, dose response (AID 488817); assay type: functional;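 also: potency of activators that raise enzyme activity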
[13] = Trypanosoma cruzi growth suppression in host cells – NIH3T3 host cells, beta-gal luminescence, confirmation (AID 2044); assay type: functional, cell-based;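 also: intracellular parasites grown in NIH/3T3 mouse fibroblasts as host cells; luminescent beta-galactosidase reporter signal from transgenic T. cruzi replicating inside host cells; inhibitors lower the luminescence signal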
[14] = test system: INS1; experiment: INS-1E survival protection against cytokine death – cell-based, luminescence, retest, dose response (AID 449756); assay type: functional; settings: Rattus norvegicus;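 also: cell death triggered by IL-1 beta plus TNF-alpha plus IFN-gamma mixture; protective hits raise ATP signal compared with cytokine alone wells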
[15] = target: Cytochrome P450 3A4 (Homo sapiens, UniProt P08684);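 also: CYP3A4 tested as one member of a cytochrome P450 panel screen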
Chain of Cytochrome P450 3A4 (P08684 whole entry): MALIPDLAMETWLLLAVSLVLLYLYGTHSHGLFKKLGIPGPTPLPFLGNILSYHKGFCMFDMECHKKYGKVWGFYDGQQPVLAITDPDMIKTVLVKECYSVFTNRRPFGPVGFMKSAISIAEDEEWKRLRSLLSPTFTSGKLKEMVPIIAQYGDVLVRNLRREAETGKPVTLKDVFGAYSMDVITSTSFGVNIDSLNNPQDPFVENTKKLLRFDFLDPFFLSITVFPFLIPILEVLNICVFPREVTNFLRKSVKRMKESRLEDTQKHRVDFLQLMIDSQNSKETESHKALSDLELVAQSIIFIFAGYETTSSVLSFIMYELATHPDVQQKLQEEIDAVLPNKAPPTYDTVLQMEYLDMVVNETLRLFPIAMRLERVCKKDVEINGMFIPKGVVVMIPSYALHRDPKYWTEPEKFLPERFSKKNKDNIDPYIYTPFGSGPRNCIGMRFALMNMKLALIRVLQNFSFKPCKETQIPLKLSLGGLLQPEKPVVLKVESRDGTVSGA

[16] = target: Cytochrome P450 2C19 (Homo sapiens, UniProt P33261); experiment: Cytochrome panel assay with activity outcomes. Panel member name: p450-cyp2c19 Compounds with AC50 equal or less than 10 uM are considered active; assay type: functional
Chain of Cytochrome P450 2C19 (P33261 whole entry): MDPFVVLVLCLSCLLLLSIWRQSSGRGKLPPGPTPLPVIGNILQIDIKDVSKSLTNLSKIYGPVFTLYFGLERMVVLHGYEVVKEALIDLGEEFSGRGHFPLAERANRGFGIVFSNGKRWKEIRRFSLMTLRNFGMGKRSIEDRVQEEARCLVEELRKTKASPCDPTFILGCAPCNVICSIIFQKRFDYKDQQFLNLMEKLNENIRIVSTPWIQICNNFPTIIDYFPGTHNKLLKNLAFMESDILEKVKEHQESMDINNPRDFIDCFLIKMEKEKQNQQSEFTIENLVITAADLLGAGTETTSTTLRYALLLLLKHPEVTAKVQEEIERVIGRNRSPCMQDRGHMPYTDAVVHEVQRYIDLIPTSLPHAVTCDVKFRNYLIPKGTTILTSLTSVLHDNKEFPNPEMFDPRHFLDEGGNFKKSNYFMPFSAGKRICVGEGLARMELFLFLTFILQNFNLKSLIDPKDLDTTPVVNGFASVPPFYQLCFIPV

[17] = target: Cytochrome P450 2D6 (Homo sapiens, UniProt P10635);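 also: CYP2D6 member of a cytochrome P450 panel assay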
Chain of Cytochrome P450 2D6 (P10635 whole entry): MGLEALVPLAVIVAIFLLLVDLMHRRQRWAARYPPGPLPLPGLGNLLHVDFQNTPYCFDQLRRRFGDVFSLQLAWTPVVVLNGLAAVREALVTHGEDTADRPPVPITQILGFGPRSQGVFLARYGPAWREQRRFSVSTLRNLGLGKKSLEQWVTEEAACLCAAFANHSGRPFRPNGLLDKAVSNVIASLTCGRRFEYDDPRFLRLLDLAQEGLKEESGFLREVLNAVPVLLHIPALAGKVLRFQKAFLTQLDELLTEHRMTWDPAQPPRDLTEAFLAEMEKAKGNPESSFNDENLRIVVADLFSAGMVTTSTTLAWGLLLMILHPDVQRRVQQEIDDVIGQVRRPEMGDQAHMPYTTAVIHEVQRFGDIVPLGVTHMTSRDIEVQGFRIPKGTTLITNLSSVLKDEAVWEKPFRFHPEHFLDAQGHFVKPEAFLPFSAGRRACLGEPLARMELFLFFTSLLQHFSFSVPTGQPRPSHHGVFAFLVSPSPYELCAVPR

[18] = target: Scavenger receptor class B member 1 (Mus musculus, UniProt Q61009); experiment: mouse SR-BI DiI-HDL uptake blockers – ldlA[mSR-BI] cells, fluorescence, cherry pick, dose response (AID 493194); assay type: functional, cell-based;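 also: cellular uptake of fluorescent DiI-labeled HDL measured as cell fluorescence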
Chain of Scavenger receptor class B member 1 (Q61009 whole entry): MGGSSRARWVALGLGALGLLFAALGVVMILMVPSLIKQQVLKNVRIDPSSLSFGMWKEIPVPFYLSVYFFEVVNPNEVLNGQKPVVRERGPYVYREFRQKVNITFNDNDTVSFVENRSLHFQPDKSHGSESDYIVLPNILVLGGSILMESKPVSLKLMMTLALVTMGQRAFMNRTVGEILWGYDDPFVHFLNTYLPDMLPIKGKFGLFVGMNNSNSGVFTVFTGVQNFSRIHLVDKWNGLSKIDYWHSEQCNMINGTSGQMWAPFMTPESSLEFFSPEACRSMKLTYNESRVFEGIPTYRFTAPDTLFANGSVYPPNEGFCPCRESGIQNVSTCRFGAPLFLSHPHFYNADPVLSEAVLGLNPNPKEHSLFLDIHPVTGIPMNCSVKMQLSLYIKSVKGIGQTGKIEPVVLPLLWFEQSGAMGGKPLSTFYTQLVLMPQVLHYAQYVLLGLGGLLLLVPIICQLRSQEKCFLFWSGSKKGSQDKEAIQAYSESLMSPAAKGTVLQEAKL

[19] = HGIII-sPLA2 enzyme inhibition potency – biochemical, QFRET, IC50, dose response (AID 743457);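 also: green fluorescence rise as the enzyme cleaves BODIPY PC-A2 in liposomes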
[20] = off-target signal loss in HeLa-CEM21 co-culture – HeLa F-luc CTL cells, cherry-picked, counter-screen for HIV-1 Env fusion inhibitor project, dose response (AID 652040); assay type: functional, cell-based;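 also: potency for signal decrease marking cytotoxic or nonspecific inhibition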
[21] = target: DNA repair protein RAD52 homolog (Homo sapiens, UniProt P43351); assay type: functional, biochemical
Chain of DNA repair protein RAD52 homolog (P43351 whole entry): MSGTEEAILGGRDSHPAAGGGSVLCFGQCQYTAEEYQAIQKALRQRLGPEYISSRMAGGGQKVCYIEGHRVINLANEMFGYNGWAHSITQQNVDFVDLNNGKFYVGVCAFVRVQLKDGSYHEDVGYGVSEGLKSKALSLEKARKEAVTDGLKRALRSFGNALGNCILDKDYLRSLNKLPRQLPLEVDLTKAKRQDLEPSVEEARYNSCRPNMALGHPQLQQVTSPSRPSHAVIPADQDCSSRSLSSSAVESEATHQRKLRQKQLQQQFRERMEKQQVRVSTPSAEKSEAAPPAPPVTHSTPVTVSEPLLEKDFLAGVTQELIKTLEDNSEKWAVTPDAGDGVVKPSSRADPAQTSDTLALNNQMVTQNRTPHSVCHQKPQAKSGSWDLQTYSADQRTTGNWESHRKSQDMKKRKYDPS

[22] = target: T3, Short transient receptor potential channel 4 (Mus musculus, UniProt Q9QUQ5); experiment: block of DAMGO-driven TRPC4 calcium entry – cell-based, HEK293 TRPC4/mu-opioid, Fluo-4 calcium, dose response (AID 434942); assay type: functional;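 also: potency of inhibitors blocking the TRPC4 calcium response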
T3 sequence (Q9QUQ5 whole entry): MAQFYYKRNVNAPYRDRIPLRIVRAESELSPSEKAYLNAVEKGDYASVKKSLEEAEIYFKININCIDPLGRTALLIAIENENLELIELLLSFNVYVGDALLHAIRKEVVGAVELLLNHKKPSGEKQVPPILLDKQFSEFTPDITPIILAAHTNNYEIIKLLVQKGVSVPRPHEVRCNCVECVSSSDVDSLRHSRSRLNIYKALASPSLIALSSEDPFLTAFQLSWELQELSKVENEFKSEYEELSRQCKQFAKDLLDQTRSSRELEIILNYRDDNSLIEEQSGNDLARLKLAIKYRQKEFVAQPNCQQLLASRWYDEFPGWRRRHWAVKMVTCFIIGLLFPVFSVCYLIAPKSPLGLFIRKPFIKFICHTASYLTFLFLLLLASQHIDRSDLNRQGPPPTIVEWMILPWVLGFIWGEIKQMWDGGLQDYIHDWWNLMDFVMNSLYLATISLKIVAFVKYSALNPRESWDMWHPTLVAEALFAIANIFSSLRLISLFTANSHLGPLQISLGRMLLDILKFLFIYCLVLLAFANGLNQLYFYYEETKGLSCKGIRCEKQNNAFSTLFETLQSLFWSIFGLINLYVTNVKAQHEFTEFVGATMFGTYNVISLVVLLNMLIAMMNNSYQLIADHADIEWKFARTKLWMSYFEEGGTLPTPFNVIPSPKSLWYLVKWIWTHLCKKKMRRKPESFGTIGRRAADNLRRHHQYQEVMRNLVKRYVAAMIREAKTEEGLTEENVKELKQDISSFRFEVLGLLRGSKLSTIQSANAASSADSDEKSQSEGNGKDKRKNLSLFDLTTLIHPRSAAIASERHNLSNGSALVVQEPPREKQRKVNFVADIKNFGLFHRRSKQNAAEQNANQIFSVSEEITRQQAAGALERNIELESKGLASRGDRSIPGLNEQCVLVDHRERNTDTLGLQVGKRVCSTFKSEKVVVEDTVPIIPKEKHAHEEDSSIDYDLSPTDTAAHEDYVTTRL

[23] = A cytotoxicity screen of small molecule inhibitors of the PhoP region in Salmonella typhi identified in the primary screen. [Related pubchem assays: 1850, 1864, 1985 ]; assay type: functional
[24] = target: T4, DNA repair and recombination protein RAD54-like (Homo sapiens, UniProt Q92698); experiment: RAD54 Holliday junction migration blockers – biochemical, fluorescence, cherry-picked samples, dose series, confirmation (AID 651657); assay type: functional
T4 sequence (Q92698 whole entry): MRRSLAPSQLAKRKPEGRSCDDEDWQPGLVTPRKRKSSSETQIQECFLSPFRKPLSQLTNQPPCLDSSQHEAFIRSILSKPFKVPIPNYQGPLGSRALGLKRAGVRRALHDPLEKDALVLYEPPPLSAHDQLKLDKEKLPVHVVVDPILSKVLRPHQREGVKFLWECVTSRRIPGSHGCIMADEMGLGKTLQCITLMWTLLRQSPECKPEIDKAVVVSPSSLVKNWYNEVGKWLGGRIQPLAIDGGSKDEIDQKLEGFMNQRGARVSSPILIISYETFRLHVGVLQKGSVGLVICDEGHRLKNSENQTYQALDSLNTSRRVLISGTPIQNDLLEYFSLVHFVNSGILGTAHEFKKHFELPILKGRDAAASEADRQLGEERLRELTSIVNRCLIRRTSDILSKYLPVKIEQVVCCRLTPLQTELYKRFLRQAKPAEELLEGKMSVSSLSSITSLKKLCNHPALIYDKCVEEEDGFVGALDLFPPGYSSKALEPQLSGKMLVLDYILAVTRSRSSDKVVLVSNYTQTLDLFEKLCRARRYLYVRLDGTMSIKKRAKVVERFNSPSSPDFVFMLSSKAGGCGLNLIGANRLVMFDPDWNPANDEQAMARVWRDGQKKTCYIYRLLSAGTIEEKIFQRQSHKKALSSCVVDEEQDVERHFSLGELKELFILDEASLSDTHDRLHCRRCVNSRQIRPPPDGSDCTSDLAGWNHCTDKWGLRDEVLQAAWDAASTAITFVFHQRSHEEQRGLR

[25] = target: CAAX prenyl protease 1 (Saccharomyces cerevisiae S288c, UniProt P47154); experiment: yeast CAAX protease Ste24 inhibition – biochemical, S. cerevisiae, plate reader, cherry-pick, dose response (AID 488815)
Chain of CAAX prenyl protease 1 (P47154 whole entry): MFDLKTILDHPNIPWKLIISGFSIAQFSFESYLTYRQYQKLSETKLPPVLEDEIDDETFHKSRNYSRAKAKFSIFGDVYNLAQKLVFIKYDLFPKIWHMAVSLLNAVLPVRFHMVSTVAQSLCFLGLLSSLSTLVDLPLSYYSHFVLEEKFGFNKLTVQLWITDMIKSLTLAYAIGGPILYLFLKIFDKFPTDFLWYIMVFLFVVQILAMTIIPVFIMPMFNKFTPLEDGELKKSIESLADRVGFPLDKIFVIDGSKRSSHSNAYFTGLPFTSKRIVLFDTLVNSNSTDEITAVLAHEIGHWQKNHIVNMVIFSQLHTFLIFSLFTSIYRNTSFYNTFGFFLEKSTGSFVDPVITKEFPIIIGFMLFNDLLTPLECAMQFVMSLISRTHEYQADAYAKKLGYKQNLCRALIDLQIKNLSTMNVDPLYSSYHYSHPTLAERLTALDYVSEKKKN

Chain of SUMO-activating enzyme (Q9UBE0 whole entry): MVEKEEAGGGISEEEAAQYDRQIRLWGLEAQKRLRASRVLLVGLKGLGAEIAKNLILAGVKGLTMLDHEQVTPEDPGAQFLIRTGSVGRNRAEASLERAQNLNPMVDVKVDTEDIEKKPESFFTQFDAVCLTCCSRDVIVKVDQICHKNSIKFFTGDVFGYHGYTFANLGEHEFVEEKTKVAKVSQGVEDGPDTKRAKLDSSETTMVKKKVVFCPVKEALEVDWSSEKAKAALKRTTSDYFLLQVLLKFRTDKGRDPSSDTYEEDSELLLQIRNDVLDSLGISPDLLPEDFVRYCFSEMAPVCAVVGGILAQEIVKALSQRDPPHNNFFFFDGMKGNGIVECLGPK
Chain of SUMO-activating enzyme (Q9UBT2 whole entry): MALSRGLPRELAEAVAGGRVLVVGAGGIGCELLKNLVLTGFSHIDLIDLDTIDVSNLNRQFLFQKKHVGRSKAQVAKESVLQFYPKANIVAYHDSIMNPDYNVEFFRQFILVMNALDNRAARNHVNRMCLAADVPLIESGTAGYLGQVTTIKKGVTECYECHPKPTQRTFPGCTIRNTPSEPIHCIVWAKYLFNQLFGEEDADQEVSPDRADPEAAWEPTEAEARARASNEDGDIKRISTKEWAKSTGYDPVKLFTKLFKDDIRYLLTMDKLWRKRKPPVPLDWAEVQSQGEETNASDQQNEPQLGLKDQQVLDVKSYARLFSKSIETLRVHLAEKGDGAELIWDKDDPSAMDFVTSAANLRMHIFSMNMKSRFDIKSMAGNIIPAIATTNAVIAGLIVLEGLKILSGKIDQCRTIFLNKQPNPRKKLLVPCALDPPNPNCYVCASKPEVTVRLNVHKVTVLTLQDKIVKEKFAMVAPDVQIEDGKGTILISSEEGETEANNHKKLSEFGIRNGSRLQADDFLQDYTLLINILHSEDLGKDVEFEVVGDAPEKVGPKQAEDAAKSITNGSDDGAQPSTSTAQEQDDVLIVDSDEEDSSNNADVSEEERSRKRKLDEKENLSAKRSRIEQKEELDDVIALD

## CCCCOc1ccc(/C=C/C(=O)Nc2ccc(C(N)=O)cc2)cc1
[1]
  IC50: 96.7 µM (active)

## CCOc1ccc(/C=N/NC(=O)c2[nH]ncc2Br)c(O)c1
[2]
  IC50: 3.83 µM (active)
[3]
  EC50: 14.9 µM (active)
[4]
  EC50: 7.33 µM (active)
[5]
  IC50: 73.8 µM (active)
[6]
  EC50: 11.5 µM (active)
[7]
  EC50: 10.3 µM (active)
[8]
  EC50: > 38 µM (not active)
[9]
  IC50: 3.4 µM (active)
[10]
  EC50: 6.69 µM (active)
[11]
  EC50: 191 µM (active)
[12]
  EC50: 8.97 µM (active)
[13]
  EC50: 1.48 µM (active)
[14]
  AC50: 1.14 µM (active)

## C[C@@H]1/C=C\CC(=O)OC[C@H](C)C(=O)N[C@@H](Cc2ccccc2)C(=O)OC1
[15]
  AC50: 3.16 µM (inconclusive)
[16]
  AC50: inconclusive
[17]
  AC50: inconclusive

## CCOc1ccc2c(c1)-c1c(ssc1=S)C(C)(C)N2C(=O)c1ccco1
[18]
  AC50: 13.7 µM (active)
[19]
  IC50: 46.2 µM (inactive)
[20]
  AC50: 17.6 µM (active)

## Cc1ccc2nc3c(c(N)c2c1)CCN3C
[21]
  AC50: 15.4 µM (active)
[22]
  EC50: 2.37 µM (active)
[23]
  EC50: > 50 µM (active)
[24]
  AC50: 21.7 µM (active)
[25]
  AC50: 16.6 µM (active)
